Data as given in US20210308089A1, “METHODS OF TREATING AND/OR PREVENTING VIRAL INFECTIONS AND/OR DISEASES CAUSED BY VIRUSES IN A SUBJECT IN NEED THEREOF” (priority 2020, published 2021).

Test system: patients of the REDUCE-IT and earlier EPA placebo-controlled trials
Assay type: in vivo, human
Conditions: R-I

Compound: CC/C=C\C/C=C\C/C=C\C/C=C\C/C=C\CCCC(=O)OCC [icosapent ethyl, eicosapentaenoic acid ethyl ester]
- ARR: Platelet count: PCS Low <100 × 10^3/uL: −0.6%
- ARR: SBP High (≥160 mmHg): −1.7%
- ARR: SBP High and rose ≥20 mmHg: −1.1%
- ARR: SBP Low (≤90 mmHg): 0.5%
- ARR: SBP dropped ≥20 mmHg: 2.6%
- ARR: SBP low and dropped ≥20 mmHg: 0.2%
- ARR: SBP rose ≥20 mmHg: −0.7%
- ARR: Urate high (Day 120): 4.4%
- ARR: Urate high (Day 360): 3.9%
- ARR: Urate high (Day 720): 3.4%
- ARR: Urate high (Day 1080): 1.2%
- ARR: Urate high (Day 1440): 1.3%
- ARR: Urate high (Day 1800): 1.0%
- ARR: Urate shift: normal to high (Day 120): 2.8%
- ARR: Urate shift: normal to high (Day 360): 3.0%
- ARR: Urate shift: normal to high (Day 720): 2.5%
- ARR: Urate shift: normal to high (Day 1080): 0.8%
- ARR: Urate shift: normal to high (Day 1440): 0.6%
- ARR: Urate shift: normal to high (Day 1800): 0.2%
- ARR: Urate shift: normal to low (Day 120): 0.1%
- ARR: Urate shift: normal to low (Day 360): −0.1%
- ARR: Urate shift: normal to low (Day 720): −0.2%
- ARR: Urate shift: normal to low (Day 1080): −0.1%
- ARR: Urate shift: normal to low (Day 1440): −0.4%
- ARR: Uric acid PCS High >7.5 mg/dL (Women): 0.8%
- ARR: Uric acid PCS High >8.0 mg/dL (Men): 4.2%
- ARR: Uric acid PCS Low <1.9 mg/dL (Women): 0.0%
- ARR: Uric acid PCS Low <2.5 mg/dL (Men): −0.2%
- NNT: ALP high (Day 120): 67
- NNT: ALP high (Day 360): 50
- NNT: ALP high (Day 720): 41
- NNT: ALP high (Day 1080): 33
- NNT: ALP high (Day 1440): 34
- NNT: ALP high (Day 1800): 37
- NNT: ALP shift: normal to high (Day 120): 78
- NNT: ALP shift: normal to high (Day 360): 54
- NNT: ALP shift: normal to high (Day 720): 39
- NNT: ALP shift: normal to high (Day 1080): 34
- NNT: ALP shift: normal to high (Day 1440): 37
- NNT: ALP shift: normal to high (Day 1800): 39
- NNT: ALP shift: normal to low (Day 120): −267
- NNT: ALP shift: normal to low (Day 360): −359
- NNT: ALP shift: normal to low (Day 720): −252
- NNT: ALP shift: normal to low (Day 1080): −360
- NNT: ALP shift: normal to low (Day 1440): −956
- NNT: Albumin high (Day 120): −133
- NNT: Albumin high (Day 360): −138
- NNT: Albumin high (Day 720): −156
- NNT: Albumin high (Day 1080): −140
- NNT: Albumin high (Day 1440): −132
- NNT: Albumin shift: normal to high (Day 120): −123
- NNT: Albumin shift: normal to high (Day 360): −137
- NNT: Albumin shift: normal to high (Day 720): −140
- NNT: Albumin shift: normal to high (Day 1080): −248
- NNT: Albumin shift: normal to high (Day 1440): −145
- NNT: Bilirubin >1x ULN to 2x ULN: −29
- NNT: Bilirubin >2x ULN to 3x ULN: −497
- NNT: Bilirubin high (Day 120): −42
- NNT: Bilirubin high (Day 360): −50
- NNT: Bilirubin high (Day 720): −38
- NNT: Bilirubin high (Day 1080): −50
- NNT: Bilirubin high (Day 1440): −40
- NNT: Bilirubin high (Day 1800): −43
- NNT: Bilirubin shift: normal to high (Day 120): −77
- NNT: Bilirubin shift: normal to high (Day 360): −80
- NNT: Bilirubin shift: normal to high (Day 720): −76
- NNT: Bilirubin shift: normal to high (Day 1080): −95
- NNT: Bilirubin shift: normal to high (Day 1440): −57
- NNT: Bilirubin shift: normal to high (Day 1800): −81
- NNT: Calcium high (Day 120): 430
- NNT: Calcium high (Day 360): 1019
- NNT: Calcium high (Day 720): 325
- NNT: Calcium low (Day 120): −1944
- NNT: Calcium low (Day 360): −410
- NNT: Calcium low (Day 720): −567
- NNT: DBP High (≥100 mmHg): −165
- NNT: DBP High and Rose ≥10 mmHg: −264
- NNT: DBP Low (≤50 mmHG): −794
- NNT: DBP Low and dropped ≥10 mmHg: −3916
- NNT: DBP dropped ≥10 mmHG: −32
- NNT: DBP rose ≥10 mmHg: 158
- NNT: High platelets (Day 720): −162
- NNT: Low platelets (Day 360): 54
- NNT: Low platelets (Day 720): 144
- NNT: Low platelets (Day 1080): 85
- NNT: Platelet count: PCS Low <100 × 10^3/uL: 166
- NNT: SBP High (≥160 mmHg): 58
- NNT: SBP High and rose ≥20 mmHg: 87
- NNT: SBP Low (≤90 mmHg): −221
- NNT: SBP dropped ≥20 mmHg: −38
- NNT: SBP low and dropped ≥20 mmHg: −497
- NNT: SBP rose ≥20 mmHg: 140
- NNT: Urate high (Day 120): −22
- NNT: Urate high (Day 360): −26
- NNT: Urate high (Day 720): −29
- NNT: Urate high (Day 1080): −81
- NNT: Urate high (Day 1440): −76
- NNT: Urate high (Day 1800): −103
- NNT: Urate shift: normal to high (Day 120): −36
- NNT: Urate shift: normal to high (Day 360): −33
- NNT: Urate shift: normal to high (Day 720): −39
- NNT: Urate shift: normal to high (Day 1080): −127
- NNT: Urate shift: normal to high (Day 1440): −160
- NNT: Urate shift: normal to high (Day 1800): −422
- NNT: Urate shift: normal to low (Day 120): −1647
- NNT: Urate shift: normal to low (Day 360): 1418
- NNT: Urate shift: normal to low (Day 720): 533
- NNT: Urate shift: normal to low (Day 1080): 740
- NNT: Urate shift: normal to low (Day 1440): 280
- NNT: Uric acid PCS High >7.5 mg/dL (Women): −120
- NNT: Uric acid PCS High >8.0 mg/dL (Men): −24
- NNT: Uric acid PCS Low <1.9 mg/dL (Women): −1.58e+07
- NNT: Uric acid PCS Low <2.5 mg/dL (Men): 569
- Placebo-Adjusted % Change: Alkaline phosphatase (Day 120): −10.4%
- Placebo-Adjusted % Change: Alkaline phosphatase (Day 360): −12.5%
- Placebo-Adjusted % Change: Alkaline phosphatase (Day 720): −12.6%
- Placebo-Adjusted % Change: Alkaline phosphatase (Day 1080): −14.1%
- Placebo-Adjusted % Change: Alkaline phosphatase (Day 1440): −13.1%
- Placebo-Adjusted % Change: DBP (Day 120): −.9%
- Placebo-Adjusted % Change: DBP (Day 360): −.8%
- Placebo-Adjusted % Change: DBP (Day 720): −.6%
- Placebo-Adjusted % Change: DBP (Day 1080): −.5%
- Placebo-Adjusted % Change: DBP (Day 1440): −.4%
- Placebo-Adjusted % Change: SBP (Day 120): −1%
- Placebo-Adjusted % Change: SBP (Day 360): −1.1%
- Placebo-Adjusted % Change: SBP (Day 720): −1%
- Placebo-Adjusted % Change: SBP (Day 1080): −1.1%
- Placebo-Adjusted % Change: SBP (Day 1440): −.9%
- Placebo-Adjusted % Change: Urate (Day 120): +4.31%
- Placebo-Adjusted % Change: Urate (Day 360): +4.07%
- Placebo-Adjusted % Change: Urate (Day 720): +3.66%
- Placebo-Adjusted % Change: Urate (Day 1080): +2.94%
- Placebo-Adjusted % Change: Urate (Day 1440): +3.23%
- Risk Ratio (95% CI): ALP high (Day 120): 0.623 (0.485 to 0.801) 2
- Risk Ratio (95% CI): ALP high (Day 360): 0.542 (0.420 to 0.700) 3
- Risk Ratio (95% CI): ALP high (Day 720): 0.568 (0.449 to 0.717) 3
- Risk Ratio (95% CI): ALP high (Day 1080): 0.486 (0.375 to 0.630) 3
- Risk Ratio (95% CI): ALP high (Day 1440): 0.483 (0.362 to 0.644) 3
- Risk Ratio (95% CI): ALP high (Day 1800): 0.527 (0.362 to 0.767) 3
- Risk Ratio (95% CI): ALP shift: normal to high (Day 120): 0.401 (0.267 to 0.603) 3
- Risk Ratio (95% CI): ALP shift: normal to high (Day 360): 0.335 (0.227 to 0.497) 4
- Risk Ratio (95% CI): ALP shift: normal to high (Day 720): 0.397 (0.291 to 0.541) 4
